Structure (SMILES)	melting point
CCOC(=O)Cc1csc(-c2cc3cccc(NS(=O)(=O)c4cccs4)c3[nH]2)n1	161 to 162 °C
NC(N)=NC(=O)Cn1c(Cl)ccc1Cl	224 to 225 °C
COc1ccc(C(=O)Nc2ccc(OC)cc2NC(=O)c2ccc(OC)cc2)cc1	238 to 239 °C
CC12CC(=O)C3C(CCC4CC5OC5CC43C)C1CCC2=O (stereo not given)	166 to 167 °C
Cn1c(COc2ccc(CC3SC(=O)NC3=O)cc2)nc2ccc(Oc3ccc4cccc(NC(=O)Nc5ccc(C(F)(F)F)cc5)c4c3)cc21 (stereo not given)	250 to 254 °C
COc1cc(NC(C)=O)ccc1OCC(O)CN1CCN(c2ccccc2F)CC1 (stereo not given)	144 °C
O=C(O)C=CC(=O)Nc1n[nH]c2ccc(Br)cc12	172 °C
Nc1cc2c(cc1N)C1CC2CN(C(=O)C(F)(F)F)C1	129 to 131 °C
CC(CS)C(=O)NC(C(=O)O)C(C)C (stereo not given)	150 to 157 °C
Cn1c(C(F)(F)F)cc(=O)n(-c2ccc(Cl)c(C3OCCCO3)c2)c1=O	87 to 92 °C
CCCCc1nc(C(=O)O)c(S(=O)(=O)c2ccccc2)n1Cc1ccc(-c2ccccc2C(=O)O)cc1	155 °C
Cc1nc2c(s1)-c1nc(Nc3ccc(O)cc3)ncc1CC2	268 to 269 °C
CCOC(=O)C1Nc2ccccc2S(=O)(=O)n2cccc21 (stereo not given)	131 to 134 °C
O=c1c(C2=CS(=O)(=O)c3cc(NS(=O)(=O)c4ccccc4)ccc3N2)c(O)c2cc(F)ccc2n1CCC1CC1	> 200 °C
COc1cc(Nc2c(C#N)cnc3cc(-c4ccc(CN5CCOCC5)c(CN5CCOCC5)c4)ccc23)c(Cl)cc1Cl	198 to 200 °C
CC1(C)Oc2ccc(C(=O)CN=[N+]=[N-])cc2S1	52 to 53 °C
Cn1nc(C(F)(F)F)n(-c2ccc(C#Cc3ccccc3)cc2Cl)c1=S	50 to 53 °C
NC(=CC(=O)[C@H](Cc1ccccc1)N(Cc1ccccc1)Cc1ccccc1)Cc1ccccc1	101 to 102 °C
C=Cc1cc(NC(=O)N2CCN(c3cc(F)cc(F)c3)CC2)c(OC)nc1C	160 to 161 °C
c1ccc2c(c1)CCc1c-2noc1N1CCNCC1	97 to 99 °C
O=C(O)c1cnc2n(c1=O)CCc1cc(O)c(O)cc1-2	308 to 314 °C
CCOC(=O)c1ccc(NC(C)=O)c(CN(CC)CC)c1	57 to 59 °C
CCCc1c(Br)sc2[nH]c(=O)c(=O)[nH]c12	269 to 271 °C
COC(=O)c1cnnn1C1OC(COC(=O)c2ccccc2)C(OC(=O)c2ccccc2)C1OC(=O)c1ccccc1 (stereo not given)	86 to 88 °C
CNC(=O)c1cccc(F)c1Nc1nc(Nc2ccc3c(c2)N(C(C)=O)CC(=O)NC3)ncc1Cl	179 to 185 °C

Structure (SMILES)	melting point
CC(C)(C)OC(=O)Nc1cc(OCc2ccccc2)c(OCc2ccccc2)cn1	163 °C
CCOc1ccc(Cl)c([N+](=O)[O-])c1	48 to 49.5 °C
Cc1cc(-c2nnc3c4ccccc4c(OCc4cnc5ccccc5n4)nn23)no1	243 to 245 °C
O=C1C(CCO)Oc2ccccc2N1Cc1ccc2ccccc2c1 (stereo not given)	81 to 87 °C
Cc1c(-c2ccc(F)cc2)c(-c2ccc(S(N)(=O)=O)cc2)c2n1CCC2	120 °C
CCCCOc1ccc(CCCCCCCCC(=O)O)cc1	45 to 48 °C
COc1ccc(-n2nc(Sc3ccc(S(C)=O)cc3)c(C)c(C#N)c2=O)cc1 (stereo not given)	176 to 178 °C
Nc1ccc2c(=O)n3c(nc2c1)C(=Cc1ccccc1Cl)CC3	275 to 280 °C
c1ccc(-c2nnsc2-c2ccc3c(c2)OCO3)cc1	107 to 109 °C
CC(=O)c1cc2c(cc1NC(=O)C(O)(CC(C)(C)c1ccccc1)C(F)(F)F)COC2=O (stereo not given)	195 to 199 °C
O=C1NCCN=C1c1ccc([N+](=O)[O-])cc1	191 to 192 °C
CC(=O)N(C)c1ccc(-c2ccnc3c(C(=O)c4ccco4)cnn23)cc1	202 to 204 °C
O=C(NCc1cccnc1)[NH+]([O-])c1cccc2ccccc12 (stereo not given)	188 °C
CCCCCS(=O)(=O)NC/C=C/c1ccc(OCCOC)cc1Oc1ncc(C(F)(F)F)cc1Cl	106 °C
NC(=O)c1coc(-c2cccc(C3=Nc4ccc(-n5cccc5)cc4NC(=O)C3)c2)n1	232 to 234 °C
COC(=S)c1nc(-c2ccccc2)c(N)nc1N	210 °C
O=C(COCCc1coc2c(O)cccc12)c1ccccc1	114 to 115 °C
O=P1(O)Oc2c(Cl)cc(Cl)cc2-c2ccc(Cl)cc21	260 °C
O=c1[nH]c2cccc(OCCNCc3ccccc3)c2[nH]1	132 to 135 °C
CN1CCC(c2c(O)cc(O)c3c(=O)cc(-c4ccccc4Cl)oc23)C1CC#N (stereo not given)	107 to 108 °C
Clc1cc(N2CCOCC2)ccc1Nc1ncc2c(Cl)cc(-c3ccccc3)n2n1	242 to 244 °C
CCCc1c(O)cc(O)c(C)c1C(=O)OC	88 to 91 °C
COC(=O)C1=C(C)NC(CC(=O)N2CCN(C3CCCC3)CC2)=C(C(=O)OC)C1c1c(Cl)cccc1Cl (stereo not given)	185 to 195 °C
CC(C)C(C)(NC(c1ccccc1)c1ccccc1)P(O)O (stereo not given)	177 °C
N#Cc1ccc(C=O)c(N2CCCC2)c1	121 °C

From a melting point compilation (Tetko et al.; mined from patent text by program, amines drawn as free bases though some values may be those of a salt)
